From PMC9329436, “Optimization of the 4-anilinoquin(az)oline scaffold as epidermal growth factor receptor (EGFR) inhibitors for chordoma utilizing a toxicology profiling assay platform” (Scientific Reports, 2022) come the findings set out here.

Holding throughout (format): biochemical
Test [1] concerns the target T1, 320 wild-type protein kinases (Homo sapiens, UniProt O00444).
T1 sequence (O00444 1-970): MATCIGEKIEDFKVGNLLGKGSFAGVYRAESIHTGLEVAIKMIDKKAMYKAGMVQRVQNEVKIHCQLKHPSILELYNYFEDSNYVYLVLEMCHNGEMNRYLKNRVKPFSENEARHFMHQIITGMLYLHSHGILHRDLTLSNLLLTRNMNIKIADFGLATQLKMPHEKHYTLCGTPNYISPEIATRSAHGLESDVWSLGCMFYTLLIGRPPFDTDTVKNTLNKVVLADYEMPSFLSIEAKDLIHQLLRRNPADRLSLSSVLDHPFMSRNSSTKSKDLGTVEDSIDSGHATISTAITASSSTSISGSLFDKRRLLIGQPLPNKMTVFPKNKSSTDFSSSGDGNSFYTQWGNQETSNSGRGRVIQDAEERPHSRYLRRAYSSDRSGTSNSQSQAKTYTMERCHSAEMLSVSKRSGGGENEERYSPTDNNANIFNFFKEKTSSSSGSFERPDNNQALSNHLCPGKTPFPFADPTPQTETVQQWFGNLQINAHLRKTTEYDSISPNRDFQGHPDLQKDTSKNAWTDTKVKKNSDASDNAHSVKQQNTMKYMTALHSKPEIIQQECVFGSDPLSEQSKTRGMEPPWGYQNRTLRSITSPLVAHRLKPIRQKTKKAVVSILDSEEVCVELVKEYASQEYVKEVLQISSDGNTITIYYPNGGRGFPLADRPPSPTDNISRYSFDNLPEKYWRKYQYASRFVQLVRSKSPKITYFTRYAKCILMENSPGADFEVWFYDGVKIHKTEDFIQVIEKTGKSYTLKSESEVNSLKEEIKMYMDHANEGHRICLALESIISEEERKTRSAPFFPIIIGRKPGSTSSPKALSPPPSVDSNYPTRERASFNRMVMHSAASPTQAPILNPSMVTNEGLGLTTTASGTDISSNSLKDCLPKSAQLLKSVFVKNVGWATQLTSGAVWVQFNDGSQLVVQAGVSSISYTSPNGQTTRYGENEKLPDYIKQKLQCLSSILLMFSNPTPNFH
To be noted: kinase SAK, singlicate. An excerpt: (§1) Table S4. Profiling of two compounds at two concentrations against 320 wild-type protein kinases; singlicate measurement; Residual activities (% of control).

Test [2] concerns the target 320 wild-type protein kinases (Homo sapiens, UniProt O00506). To be noted: kinase STK25, singlicate.
Excerpt: as §1

In test [3] the target is T2, 320 wild-type protein kinases (Homo sapiens, UniProt O43318).
T2 sequence (O43318 1-606): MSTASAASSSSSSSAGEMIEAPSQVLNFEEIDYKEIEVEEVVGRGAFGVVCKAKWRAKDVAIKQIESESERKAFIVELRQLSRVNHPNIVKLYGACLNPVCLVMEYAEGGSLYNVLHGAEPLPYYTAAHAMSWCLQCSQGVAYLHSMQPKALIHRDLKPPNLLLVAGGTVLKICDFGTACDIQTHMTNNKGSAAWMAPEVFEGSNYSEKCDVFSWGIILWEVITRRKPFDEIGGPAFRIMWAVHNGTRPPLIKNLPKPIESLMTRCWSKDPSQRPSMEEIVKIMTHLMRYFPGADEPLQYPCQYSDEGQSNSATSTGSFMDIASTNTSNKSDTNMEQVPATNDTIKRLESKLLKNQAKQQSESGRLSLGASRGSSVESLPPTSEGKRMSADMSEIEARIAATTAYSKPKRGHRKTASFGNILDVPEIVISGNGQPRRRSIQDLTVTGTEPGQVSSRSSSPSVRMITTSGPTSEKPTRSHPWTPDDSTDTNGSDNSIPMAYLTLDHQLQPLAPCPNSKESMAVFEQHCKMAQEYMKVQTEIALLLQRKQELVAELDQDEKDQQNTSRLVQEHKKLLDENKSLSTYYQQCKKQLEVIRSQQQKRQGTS
To be noted: singlicate.
Excerpt: as §1

Test [4] addresses 320 wild-type protein kinases (Homo sapiens, UniProt O96013). The settings on record: singlicate.
Excerpt: as §1

The target in test [5] is T3, 320 wild-type protein kinases (Homo sapiens, UniProt P42679).
T3 sequence (P42679 1-507): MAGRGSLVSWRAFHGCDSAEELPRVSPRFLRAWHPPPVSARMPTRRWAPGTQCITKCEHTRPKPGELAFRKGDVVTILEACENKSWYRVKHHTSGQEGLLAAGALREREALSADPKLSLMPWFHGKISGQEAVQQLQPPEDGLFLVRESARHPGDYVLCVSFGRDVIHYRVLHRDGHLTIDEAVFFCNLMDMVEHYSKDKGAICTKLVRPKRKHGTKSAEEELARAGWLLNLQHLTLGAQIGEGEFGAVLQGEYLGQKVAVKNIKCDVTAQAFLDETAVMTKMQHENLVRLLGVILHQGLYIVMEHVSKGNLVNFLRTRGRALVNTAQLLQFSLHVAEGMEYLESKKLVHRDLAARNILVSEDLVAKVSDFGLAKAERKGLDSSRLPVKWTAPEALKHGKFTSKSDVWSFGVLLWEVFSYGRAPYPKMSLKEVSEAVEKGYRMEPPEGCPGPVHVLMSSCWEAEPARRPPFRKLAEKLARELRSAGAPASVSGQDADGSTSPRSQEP
The settings on record: MATK, singlicate.
Excerpt: as §1

Test [6] has as its target 320 wild-type protein kinases (Homo sapiens, UniProt P54756). The settings on record: singlicate.
Excerpt: as §1

For test [7], the target named is 320 wild-type protein kinases (Homo sapiens, UniProt Q13164). To be noted: singlicate.
Excerpt: as §1

Test [8] concerns 320 wild-type protein kinases. The settings on record: singlicate.
Excerpt: as §1

Read-outs that look alike come from different tables or passages of the source.

Chain of 320 wild-type protein kinases (Homo sapiens, UniProt O00506) (O00506 whole entry): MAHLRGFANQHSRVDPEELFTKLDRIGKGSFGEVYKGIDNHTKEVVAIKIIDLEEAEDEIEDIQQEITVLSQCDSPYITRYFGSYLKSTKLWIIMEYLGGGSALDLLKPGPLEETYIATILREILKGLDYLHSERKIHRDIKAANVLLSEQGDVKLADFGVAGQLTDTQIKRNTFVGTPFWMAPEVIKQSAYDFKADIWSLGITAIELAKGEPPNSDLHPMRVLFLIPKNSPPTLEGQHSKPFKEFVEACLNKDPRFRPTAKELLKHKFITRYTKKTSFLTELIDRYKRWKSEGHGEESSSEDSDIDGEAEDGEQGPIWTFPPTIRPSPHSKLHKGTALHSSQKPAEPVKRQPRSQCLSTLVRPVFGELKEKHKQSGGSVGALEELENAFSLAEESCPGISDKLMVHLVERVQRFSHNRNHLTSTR
Chain of 320 wild-type protein kinases (Homo sapiens, UniProt P54756) (P54756 25-1037): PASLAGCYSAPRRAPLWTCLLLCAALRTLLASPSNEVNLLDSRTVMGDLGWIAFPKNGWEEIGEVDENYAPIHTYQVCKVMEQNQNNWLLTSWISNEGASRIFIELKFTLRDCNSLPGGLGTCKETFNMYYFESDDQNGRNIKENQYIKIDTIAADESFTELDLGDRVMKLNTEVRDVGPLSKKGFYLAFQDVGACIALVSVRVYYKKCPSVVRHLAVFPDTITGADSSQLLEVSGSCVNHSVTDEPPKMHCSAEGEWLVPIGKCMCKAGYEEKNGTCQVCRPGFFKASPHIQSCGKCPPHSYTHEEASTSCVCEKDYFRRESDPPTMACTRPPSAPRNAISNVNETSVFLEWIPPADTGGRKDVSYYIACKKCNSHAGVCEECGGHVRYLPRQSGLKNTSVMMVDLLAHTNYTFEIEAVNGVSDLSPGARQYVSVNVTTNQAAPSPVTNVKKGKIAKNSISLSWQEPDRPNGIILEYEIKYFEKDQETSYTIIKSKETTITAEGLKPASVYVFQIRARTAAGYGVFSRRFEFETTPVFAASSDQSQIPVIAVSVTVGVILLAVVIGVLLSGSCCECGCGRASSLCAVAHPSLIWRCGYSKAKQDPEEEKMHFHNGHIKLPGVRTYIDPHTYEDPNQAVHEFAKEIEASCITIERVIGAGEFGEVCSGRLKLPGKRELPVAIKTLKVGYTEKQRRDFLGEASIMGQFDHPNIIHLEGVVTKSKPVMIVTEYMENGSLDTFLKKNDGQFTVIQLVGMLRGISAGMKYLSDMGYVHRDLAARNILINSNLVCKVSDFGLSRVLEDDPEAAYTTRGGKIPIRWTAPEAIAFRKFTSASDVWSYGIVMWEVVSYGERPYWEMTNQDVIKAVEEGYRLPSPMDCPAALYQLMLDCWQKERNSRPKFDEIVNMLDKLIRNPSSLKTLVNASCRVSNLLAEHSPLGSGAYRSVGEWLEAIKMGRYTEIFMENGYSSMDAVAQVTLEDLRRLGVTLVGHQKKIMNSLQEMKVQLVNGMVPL
Chain of 320 wild-type protein kinases (Homo sapiens, UniProt O96013) (O96013 whole entry): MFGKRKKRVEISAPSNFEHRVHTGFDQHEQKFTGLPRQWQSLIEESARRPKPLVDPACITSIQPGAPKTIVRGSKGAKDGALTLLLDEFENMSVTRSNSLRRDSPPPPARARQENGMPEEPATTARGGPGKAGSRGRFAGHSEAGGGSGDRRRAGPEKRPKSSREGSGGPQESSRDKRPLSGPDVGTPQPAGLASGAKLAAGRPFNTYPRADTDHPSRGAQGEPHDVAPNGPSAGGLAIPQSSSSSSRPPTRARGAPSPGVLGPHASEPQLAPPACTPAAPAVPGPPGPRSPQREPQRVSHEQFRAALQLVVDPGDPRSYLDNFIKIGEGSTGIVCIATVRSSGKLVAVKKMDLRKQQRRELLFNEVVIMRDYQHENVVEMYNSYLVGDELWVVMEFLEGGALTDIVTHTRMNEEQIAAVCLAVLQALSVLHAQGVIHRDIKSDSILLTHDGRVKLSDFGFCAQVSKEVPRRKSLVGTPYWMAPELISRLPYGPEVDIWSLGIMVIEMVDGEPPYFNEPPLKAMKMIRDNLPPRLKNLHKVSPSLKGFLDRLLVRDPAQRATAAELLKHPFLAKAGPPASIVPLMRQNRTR
Chain of 320 wild-type protein kinases (Homo sapiens, UniProt Q13164) (Q13164 whole entry): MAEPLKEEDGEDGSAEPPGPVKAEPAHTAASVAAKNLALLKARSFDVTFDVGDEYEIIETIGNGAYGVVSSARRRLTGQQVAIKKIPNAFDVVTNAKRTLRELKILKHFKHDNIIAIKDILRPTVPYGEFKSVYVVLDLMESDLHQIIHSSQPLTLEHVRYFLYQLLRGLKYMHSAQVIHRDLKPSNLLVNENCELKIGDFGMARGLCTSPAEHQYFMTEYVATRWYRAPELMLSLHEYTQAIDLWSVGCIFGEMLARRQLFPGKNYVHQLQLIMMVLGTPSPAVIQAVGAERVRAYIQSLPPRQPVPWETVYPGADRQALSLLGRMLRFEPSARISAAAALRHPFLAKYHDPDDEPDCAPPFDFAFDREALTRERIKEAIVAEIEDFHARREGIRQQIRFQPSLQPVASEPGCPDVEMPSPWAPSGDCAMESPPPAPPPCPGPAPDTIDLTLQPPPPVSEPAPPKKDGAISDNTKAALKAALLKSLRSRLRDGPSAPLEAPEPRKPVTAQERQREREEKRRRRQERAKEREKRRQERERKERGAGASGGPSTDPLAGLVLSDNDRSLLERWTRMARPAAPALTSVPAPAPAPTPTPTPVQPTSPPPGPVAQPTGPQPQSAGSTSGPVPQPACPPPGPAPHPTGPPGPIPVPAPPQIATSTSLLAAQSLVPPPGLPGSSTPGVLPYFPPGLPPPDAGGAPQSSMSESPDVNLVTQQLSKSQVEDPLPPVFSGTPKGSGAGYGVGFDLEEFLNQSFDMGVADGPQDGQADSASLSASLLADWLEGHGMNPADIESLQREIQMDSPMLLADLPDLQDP

As for `C#Cc1cc(Nc2ncnc3cc(OC)c(OC)cc23)ccc1Cl` [Compound 45], the figures for the “Residual activity, SAK” value in test [1] (assay conc. 1.0E-06 M) and in test [1] (assay conc. 1.0E-07 M) were 82 % of control and 99 % of control, respectively. Further, the “Residual activity, STK25” value in test [2] (assay conc. 1.0E-06 M) was 104 % of control; in test [2] (assay conc. 1.0E-07 M), 111 % of control. For the same molecule, the Residual activity in test [3] (MAP3K7/MAP3K7IP1, 1.0E-06 M) is given as 79 % of control; in test [3] (MAP3K7/MAP3K7IP1, 1.0E-07 M), 81 % of control; in test [4] (PAK4, 1.0E-06 M), 95 % of control; in test [4] (PAK4, 1.0E-07 M), 103 % of control; in test [5] (1.0E-06 M), 95 % of control; in test [5] (1.0E-07 M) it was 108 % of control. Moreover, the Residual activity in test [6] (EPHA5, 1.0E-06 M) is 92 % of control; in test [6] (EPHA5, 1.0E-07 M), 115 % of control; in test [7] (ERK5, 1.0E-06 M), 85 % of control; in test [7] (ERK5, 1.0E-07 M) it was 96 % of control; in test [8] (PKC-beta2, 1.0E-06 M), 95 % of control; in test [8] (PKC-beta2, 1.0E-07 M), 97 % of control.

For the molecule `C#Cc1cc(Nc2ncnc3cc(I)ccc23)ccc1Cl` [Compound 41], the “Residual activity, SAK” value was 77 % of control in test [1] (assay conc. 1.0E-06 M) and 95 % of control in test [1] (assay conc. 1.0E-07 M). The “Residual activity, STK25” value in test [2] (assay conc. 1.0E-06 M) is listed as 100 % of control; in test [2] (assay conc. 1.0E-07 M) it was 95 % of control. Besides, the Residual activity in test [3] (MAP3K7/MAP3K7IP1, 1.0E-06 M) is on record as 87 % of control; in test [3] (MAP3K7/MAP3K7IP1, 1.0E-07 M) it was 98 % of control; in test [4] (PAK4, 1.0E-06 M), 82 % of control; in test [4] (PAK4, 1.0E-07 M), 103 % of control; in test [5] (1.0E-06 M) it was 95 % of control; in test [5] (1.0E-07 M), 100 % of control. The Residual activity in test [6] (EPHA5, 1.0E-06 M) is reported as 126 % of control; in test [6] (EPHA5, 1.0E-07 M), 128 % of control; in test [7] (ERK5, 1.0E-06 M), 74 % of control; in test [7] (ERK5, 1.0E-07 M), 92 % of control; in test [8] (PKC-beta2, 1.0E-06 M), 95 % of control; in test [8] (PKC-beta2, 1.0E-07 M) it was 98 % of control.
